According to patent publication US4604397A, “Certain benzo-(pyrano and thiopyrano)-pyridines, useful as CNS agents” (Ciba-Geigy Corporation, priority 1985, dated 1986):
pIC50: −log10 of the molar value. Counter-ions that a name gives are not always drawn.

Columns and labels:
[1] = target: presynaptic dopamine receptor; experiment: dopamine binding assay in vitro: displacement of 3H-ADTN from calf-caudate nucleus membranes; parameters: species or system calf (bovine); conditions: 0.2 nM 3H-ADTN, 60 minutes at 25° C.
Description: The presynaptic dopamine receptor binding properties indicative of the presynaptic dopamine receptor regulatory, e.g. agonistic activity, of the compounds of the invention are determined in the dopamine binding assay in vitro by the following method involving the displacement of the dopamine agonist 2-amino-6,7-dihydroxy-1,2,3,4-tetrahydronaphthalene (^3 H-ADTN) from membranes from calf-caudate nucleus. [Eur. J. Pharmacol. 55, 137 (1979)].
Bovine brain tissue is homogenized in 50 volumes (based on original tissue weight) of 50 mM Tris-HCl buffer, pH 7.7 at 25° C., using a Brinkman Polytron, setting 6 for 20 seconds. The homogenate is centrifuged at 50,000×g for 10 minutes. The pellet is resuspended in 50 volumes of 50 mM Tris-HCl buffer, pH 7.7 and recentrifuged. The final pellet is resuspended in 200 volumes of incubation media containing: 50 mM Tris-HCl buffer, pH 7.7; 0.1% ascorbic acid; 0.001 mM pargyline; 120 mM NaCl; 5 mM KCl, 2 mM CaCl2 and 1 mM MgCl2.
In the binding assay, triplicate 2 ml samples (equivalent to 5 mg/ml original tissue) of the membrane suspension are incubated for 60 minutes at 25° C. with 0.2 nM ^3 H-ADTN without or in the presence of various concentrations of test compound in solvent. The reaction is terminated by filtering with 5 ml of cold 50 mM Tris-HCl buffer pH 7.7. The filters are placed in scintillation vials with 5 ml of scintillation solution, disrupted by vigorous mechanical shaking for 90 minutes, and counted for radioactivity.
The IC50 values represent the concentration of test compounds required to inhibit the specific binding of 0.2 nM ^3 H-ADTN by 50%, and are determined graphically.

[2] = system: serotonin receptor; experiment: serotonin receptor agonist activity in vivo: decrease in accumulation of 5-hydroxytryptophane in rat brain
Description: The serotonin receptor agonist activity is determined in vivo by measuring the decrease in the accumulation of 5-hydroxytryptophane in the brain after administration of a test compound in the rat, as described in J. Med. Chem. 21, 864 (1978).

[3] = target: T1, serotonin receptor (Bos taurus, UniProt F1MGM3); experiment: 3H-serotonin binding assay in vitro, calf brain (caudate nuclei) membranes; conditions: 7 nM 3H-serotonin, 10 minutes at 37° C.
T1 construct: Caudate nuclei are dissected from freshly obtained calf brains; from tissue; host or cells: calf brain caudate nuclei membranes
Description: The serotonin binding properties indicative of serotonin agonistic receptor regulating activity of compounds of the invention are determined in the in vitro binding assay as follows:
Membrane suspensions are prepared from calf brain and incubated with ^3 H-serotonin by a modification of the procedure described by Bennett and Snyder. Caudate nuclei are dissected from freshly obtained calf brains; they are frozen and stored at -70° C. for up to 3 months. For each binding experiment, a portion of tissue is homogenized with a Brinkmann Polytron in 50 volumes (w/v) of ice-cold 50 mM Tris-HCl (pH 7.7 at 25° C.) containing 10 mM dithiothreitol. The homogenate is centrifuged twice at 50,000×g for 10 minutes with rehomogenization of the pellet in fresh buffer between spins. The final pellet is homogenized in 100 volumes (based on original tissue weight) cold 50 mM Tris-HCl (pH 7.6 at 25° C.) containing […] pargyline, 0.1% ascorbic acid, 120 mM NaCl, 5 mM KCl, 2 mM CaCl2, 1 mM MgCl2 and 10 mM dithiothreitol. The suspension is warmed in a 37° C. bath for 10 minutes and then returned to ice.
In the binding assay, 2-ml aliquots of the final tissue suspension (equivalent to 20 mg of original wet tissue) are added to tubes (on ice) containing ^3 H-serotonin with or without test compound freshly dissolved in 0.1% ascorbic acid. The final concentration of ^3 H-serotonin is 7 nM. Test compounds are present over a wide range of concentrations, with triplicate tubes for each concentration. Tubes are incubated at 37° C. for 10 minutes and the suspensions are immediately filtered under vacuum through Whatman GF/B glass fiber filters. The filters are washed with 10 ml of cold Tris-HCl (pH 7.7 at 25° C.), placed in scintillation vials with 12 ml of scintillation solution, disrupted by vigorous mechanical shaking for 90 minutes and counted for radioactivity. The IC50 values (concentrations of test compounds required to inhibit the specific binding of 7 nM ^3 H-serotonin by 50%) are determined graphically.

[4] = system: dopamine autoreceptor; experiment: rat gamma-butyrolactone (GBL) model, inhibition of GBL-induced DOPA accumulation (presynaptic dopamine agonist activity); type: in vivo
Description: Indicative of potential neuroleptic activity of the compounds of the invention, the in-vivo presynaptic dopamine agonist activity (also called dopamine autoreceptor agonist activity) is determined in the rat gamma-butyrolactone (GBL) model by a modification of the procedure described by Walters and Roth, Naunyn Schmiedeberg's Arch. Pharmacol. 296, 5 (1976). In this model, a presynaptic dopamine agonist inhibits the GBL-induced accumulation of the dopamine precursor DOPA after pretreatment with 3-hydroxybenzylhydrazine (NSD-1015), a DOPA decarboxylase inhibitor.
Test compounds are dissolved in 0.9% saline, with sodium metabisulfite to prevent oxidation, if required. […] Dihydroxyphenylalanine (DOPA) is analyzed by High Pressure Liquid Chromatography/Electrochemistry (HPLC/EC) techniques using a Bio-analytical Systems (BAS) Model LC-150 series Liquid Chromatograph. […] Compounds are detected with an electro-chemical detector having an oxidizing potential of 0.7 volts and sensitivity setting of 20 nAmps/V. Tissue concentrations and recoveries are calculated by using the internal standard dihydroxybenzylamine (DHBA). […] Data is statistically analysed by one-way Analysis of Variance with Duncan's Multiple Comparison Test. The activity of the test compounds is determined as the percent inhibition of DOPA accumulation at a given dose. […]

[5] = system: reserpine-induced hypomotility in the rat; experiment: reversal of reserpine-induced hypomotility in the rat; type: in vivo; conditions: ip
Excerpt: In vivo such selectivity can be determined by measurement of the degree of reversal of reserpine induced hypomotility in the rat. The relative absence of such reversal at effective doses (e.g. in the GBL model) is indicative of selective presynaptic dopamine agonist activity.

T1 sequence (F1MGM3 1-403): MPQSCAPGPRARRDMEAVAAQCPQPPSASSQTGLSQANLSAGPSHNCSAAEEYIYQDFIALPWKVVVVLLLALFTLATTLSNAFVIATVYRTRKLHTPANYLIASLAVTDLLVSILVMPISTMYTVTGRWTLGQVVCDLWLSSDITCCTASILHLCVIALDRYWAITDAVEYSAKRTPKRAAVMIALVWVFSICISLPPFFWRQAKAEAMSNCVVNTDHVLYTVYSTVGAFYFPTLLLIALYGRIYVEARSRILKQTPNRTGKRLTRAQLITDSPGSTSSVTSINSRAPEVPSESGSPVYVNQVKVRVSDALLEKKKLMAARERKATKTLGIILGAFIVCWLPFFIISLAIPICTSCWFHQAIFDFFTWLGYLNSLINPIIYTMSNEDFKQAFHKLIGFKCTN

SMILES | pIC50 [1] | pIC50 [3] | further results
CCCCN1CCC[C@@H]2c3cccc(O)c3OC[C@H]21 (relative stereo) [trans-4-butyl-7-hydroxy-1,2,3,4a,5,10b-hexahydro-4H-[1]-benzopyran-[3,4-b]pyridine hydrochloride] | ~7.70 | – | –
Cc1ccc2c(c1O)OC[C@@H]1[C@@H]2CCCN1C.Cl (relative stereo) [trans-7-hydroxy-4,8-dimethyl-1,2,3,4a,5,10b-hexahydro-4H-[1]-benzopyrano[3,4-b]pyridine hydrochloride] | – | – | decrease of accumulation of 5-hydroxytryptophane in the frontoparietal cortex of rat brain (in words) ([2]; dose of 0.1 mg/Kg, compared with about 25% decrease of the 8-bromo-7-methoxy-4-methyl compound): similarly effective
CCCN1CCC[C@@H]2c3cccc(O)c3OC[C@H]21 (relative stereo) [trans-7-hydroxy-4-propyl-1,2,3,4a,5,10b-hexahydro-4H-[1]-benzopyrano[3,4-b]pyridine hydrochloride] | ~7.22 | – | –
COc1cccc2c1OC[C@@H]1[C@@H]2CCCN1C (relative stereo) [trans-7-methoxy-4-methyl-1,2,3,4a,5,10b-hexahydro-4H-[1]-benzopyrano[3,4-b]pyridine hydrochloride] | – | ~7.10 | –
COc1c(Br)ccc2c1OC[C@@H]1[C@@H]2CCCN1C.Cl (relative stereo) [trans-8-bromo-7-methoxy-4-methyl-1,2,3,4a,5,10b-hexahydro-4H-[1]-benzopyrano[3,4-b]pyridine hydrochloride] | – | ~7.70 | decrease of accumulation of 5-hydroxytryptophane in the frontoparietal cortex of rat brain ([2]; 2.5 mg/kg s.c.): about 25%
CCCN1CCC[C@@H]2c3cc(O)ccc3OC[C@H]21.Cl (relative stereo) [trans-9-hydroxy-4-propyl-1,2,3,4a,5,10b-hexahydro-4H-[1]-benzopyrano[3,4-b]pyridine hydrochloride] | ~7.52 | – | ED50 ([4]; ip, read-out: ED50 in the GBL model (dose at which DOPA accumulation is inhibited by 50%)): ~0.16 mg/kg; activity in the GBL model orally ([4]; oral, dose of about 0.5 mg/kg): active; ED50 [5]: ~10 mg/kg
CN1CCC[C@@H]2c3c(O)cccc3OC[C@H]21 (relative stereo) [trans-10-hydroxy-4-methyl-1,2,3,4a,5,10b-hexahydro-4H-[1]-benzopyrano[3,4-b]pyridine hydrochloride] | – | ~6.40 | –
CCCN1CCC[C@@H]2c3c(OC)cccc3OC[C@H]21 (relative stereo) [trans-10-methoxy-4-propyl-1,2,3,4a,5,10b-hexahydro-4H-[1]-benzopyrano[3,4-b]pyridine hydrochloride] | – | ~7.70 | –
CCCN1CCC=C2c3cc(O)ccc3SCC21 (stereo not shown) [9-hydroxy-4-propyl-2,3,4a,5-tetrahydro-4H-[1]-benzothiopyrano[3,4-b]pyridine hydrochloride] | ~8.00 | – | –
